The text below walks through data of ChEMBL document CHEMBL1135110, “Structure-based design of peptidomimetic antagonists of p56(lck) SH2 domain” (Bioorg Med Chem Lett, 2002).

The target in this experiment is Tyrosine-protein kinase Lck (Homo sapiens, UniProt P06239). Briefly: Inhibitory activity towards p56 Lck tyrosine kinase SH2 domain using scintillation proximity assay (SPA).

pIC50: −log10 of the molar value. Non-standard residues stand in square brackets, D forms with d. Residues, ends and D or L forms follow the SMILES beside them. pY = N[C@@H](Cc1ccc(OP(=O)(O)O)cc1)C(=O)O

Sequence of Tyrosine-protein kinase Lck (P06239 whole entry, the tested form may be a part): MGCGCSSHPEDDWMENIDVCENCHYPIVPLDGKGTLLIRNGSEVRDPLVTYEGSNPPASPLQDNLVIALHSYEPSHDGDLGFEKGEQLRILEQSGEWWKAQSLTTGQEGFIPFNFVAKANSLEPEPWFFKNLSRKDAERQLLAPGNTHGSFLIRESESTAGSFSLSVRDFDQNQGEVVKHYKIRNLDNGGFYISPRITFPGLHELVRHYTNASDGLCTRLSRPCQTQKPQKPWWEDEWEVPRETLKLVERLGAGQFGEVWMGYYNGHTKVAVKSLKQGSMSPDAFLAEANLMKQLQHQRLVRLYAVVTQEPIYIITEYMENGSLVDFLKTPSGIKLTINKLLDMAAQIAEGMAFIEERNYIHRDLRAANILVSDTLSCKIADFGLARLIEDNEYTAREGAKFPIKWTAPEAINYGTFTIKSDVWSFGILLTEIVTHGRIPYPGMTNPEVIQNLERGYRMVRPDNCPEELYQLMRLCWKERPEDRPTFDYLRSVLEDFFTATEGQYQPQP

Take `CC[C@H](C)[C@H](NC(=O)[C@H](CCC(=O)O)NC(=O)[C@H](CCC(=O)O)NC(=O)[C@H](Cc1ccc(OP(=O)(O)O)cc1)NC(C)=O)C(=O)NC`: the pIC50 is 5.70. `CC[C@H](C)[C@H](NC(=O)[C@H](CCC(=O)O)NC(=O)[C@H](CCC(=O)O)NC(=O)[C@H](Cc1ccc(OP(=O)(O)O)cc1)NC(C)=O)C(=O)N1CCC[C@@H]1C(=O)NC` showed a pIC50 of 5.80.

The molecule `CC(=O)N[C@@H](Cc1ccc(OP(=O)(O)O)cc1)C(=O)N[C@H]1CCC(=O)N2CCC[C@@H](C(=O)NCC3CCCCC3)N2C1=O` gave a pIC50 of 5.80. Next, `CC(=O)N[C@@H](Cc1ccc(OP(=O)(O)O)cc1)C(=O)N[C@H]1CCC(=O)N2CCC[C@@H](C(=O)NC3CCc4ccccc43)N2C1=O` (stereo partly specified): 5.92. Next, `CCCCNC(=O)[C@@H]1CCCN2C(=O)CC[C@H](NC(=O)[C@H](Cc3ccc(OP(=O)(O)O)cc3)NC(C)=O)C(=O)N12`: 5.72; `CCCCCNC(=O)[C@@H]1CCCN2C(=O)CC[C@H](NC(=O)[C@H](Cc3ccc(OP(=O)(O)O)cc3)NC(C)=O)C(=O)N12`: 5.74; `CC(=O)N[C@@H](Cc1ccc(OP(=O)(O)O)cc1)C(=O)N[C@H]1CCC(=O)N2CCC[C@@H](C(=O)N[C@H]3C[C@@H](C(=O)O)c4ccccc43)N2C1=O`: 5.55.

Regarding `CC(=O)N[C@@H](Cc1ccc(OP(=O)(O)O)cc1)C(=O)N[C@H]1CCC(=O)N2CCC[C@@H](C(=O)N[C@H]3C[C@H](C(=O)O)c4ccccc43)N2C1=O`, the pIC50 was 5.70. The molecule `CC(=O)N[C@@H](Cc1ccc(OP(=O)(O)O)cc1)C(=O)N[C@H]1CCC(=O)N2CCC[C@@H](C(=O)NCc3cccc4ccccc34)N2C1=O` had a pIC50 of 5.72. Take `CC(=O)N[C@@H](Cc1ccc(OP(=O)(O)O)cc1)C(=O)N[C@H]1CCC(=O)N2CCC[C@@H](C(=O)NCc3ccc(Cl)cc3)N2C1=O`: the pIC50 was 6.40. `CC[C@H](C)[C@H](NC(=O)[C@@H]1CCCN2C(=O)CC[C@H](NC(=O)[C@H](Cc3ccc(OP(=O)(O)O)cc3)NC(C)=O)C(=O)N12)C(=O)NC` gave a pIC50 of 5.80. `CC(=O)N[C@@H](Cc1ccc(OP(=O)(O)O)cc1)C(=O)N[C@H]1CCC(=O)N2CCC[C@@H](C(=O)NCc3ccc(O)cc3)N2C1=O`: the pIC50 is 5.00. As for `CC(=O)N[C@@H](Cc1ccc(OP(=O)(O)O)cc1)C(=O)N[C@H]1CCC(=O)N2CCC[C@@H](C(=O)Nc3cccc4ccccc34)N2C1=O`, the figure is 5.96; as for `CC(=O)N[C@@H](Cc1ccc(OP(=O)(O)O)cc1)C(=O)N[C@H]1CCC(=O)N2CCC[C@@H](C(=O)N[C@@H]3C[C@H](C(=O)O)c4ccccc43)N2C1=O`, 7.52. Next, `CC(=O)N[C@@H](Cc1ccc(OP(=O)(O)O)cc1)C(=O)N[C@H]1CCC(=O)N2CCC[C@@H](C(=O)NCC(C)(C)C)N2C1=O`: 5.74; `CC(=O)N[C@@H](Cc1ccc(OP(=O)(O)O)cc1)C(=O)N[C@H]1CCC(=O)N2CCC[C@@H](C(=O)NCc3ccccc3)N2C1=O`: 5.82.

Consider `CCCNC(=O)[C@@H]1CCCN2C(=O)CC[C@H](NC(=O)[C@H](Cc3ccc(OP(=O)(O)O)cc3)NC(C)=O)C(=O)N12`, for which the negative-log IC50 (pIC50) was 5.22. With `CC(=O)N[C@@H](Cc1ccc(OP(=O)(O)O)cc1)C(=O)N[C@H]1CCC(=O)N2CCC[C@@H](C(=O)N[C@@H]3C[C@@H](C(=O)O)c4ccccc43)N2C1=O`, the pIC50 is 7.00. Next, `CC[C@@H](C)CNC(=O)[C@@H]1CCCN2C(=O)CC[C@H](NC(=O)[C@H](Cc3ccc(OP(=O)(O)O)cc3)NC(C)=O)C(=O)N12`: 5.92. As for `CC(=O)N[C@@H](Cc1ccc(OP(=O)(O)O)cc1)C(=O)N[C@H]1CCC(=O)N2CCC[C@@H](C(=O)NCC34CC5CC(CC(C5)C3)C4)N2C1=O`, the figure is 5.96. Next, `CCNC(=O)[C@@H]1CCCN2C(=O)CC[C@H](NC(=O)[C@H](Cc3ccc(OP(=O)(O)O)cc3)NC(C)=O)C(=O)N12`: 5.07; `CNC(=O)[C@H](CCC(=O)O)NC(=O)[C@H](CCC(=O)O)NC(=O)[C@H](Cc1ccc(OP(=O)(O)O)cc1)NC(C)=O` (Ac-[pY]-Glu-Glu-NHMe): 4.77; `CNC(=O)[C@H](CCC(=O)O)NC(=O)[C@H](Cc1ccc(OP(=O)(O)O)cc1)NC(C)=O` (Ac-[pY]-Glu-NHMe): 3.46. As for `CC[C@H](C)[C@H](NC(=O)[C@@H]1CCCN1C(=O)[C@@H](NC(=O)[C@H](CCC(=O)O)NC(=O)[C@H](CCC(=O)O)NC(=O)[C@H](Cc1ccc(OP(=O)(O)O)cc1)NC(=O)[C@H](CCC(N)=O)NC(=O)[C@@H]1CCCN1C(=O)[C@@H](N)CCC(=O)O)[C@@H](C)CC)C(=O)N[C@@H](Cc1ccc(O)cc1)C(=O)N[C@@H](CC(C)C)C(=O)O` (H-EPQ[pY]EEIPIYL-OH), the pIC50 was 6.44. With `CC(=O)N[C@@H](Cc1ccc(OP(=O)(O)O)cc1)C(=O)N[C@H]1CCC(=O)N2CCC[C@@H](C(=O)NC3CC(C(=O)O)c4ccccc43)N2C1=O` (stereo in doubt; 34), the pIC50 is 5.11.

Take `CC(=O)N[C@@H](Cc1ccc(OP(=O)(O)O)cc1)C(=O)N[C@H]1CCC(=O)N2CCC[C@@H](C(=O)NC3CC(C(=O)O)c4ccccc43)N2C1=O` (stereo in doubt; 35): the negative logarithm of the IC50 (pIC50) was 5.14.
